Reference: patent publication US20250163052A1, “cGAS INHIBITORS AND USES THEREOF” (Cornell University, priority 2022, published 2025)

What was measured:
m-cGAS = m-cGAS (Mus musculus, UniProt Q8C6L5); assay: Cell-free mouse cGAS enzyme inhibition assay (ATP depletion, Kinase-Glo Max); assay type: biochemical; conditions: 1 h; for inhibition at 10 µM: read-out: m-cGAS, conc. 10 μM; for inhibition at 1 µM: read-out: m-cGAS, conc. 1 μM
h-cGAS = h-cGAS (Homo sapiens, UniProt Q8N884); assay: Cell-free human cGAS enzyme inhibition assay (ATP depletion, Kinase-Glo Max); assay type: biochemical; conditions: 3 h; for inhibition at 1 µM: read-out: h-cGAS, conc. 1 μM; for inhibition at 10 µM: read-out: h-cGAS, conc. 10 μM
[1] = Metabolic stability in human liver microsomes; conditions: for Remaining (NCF = 60 min) / Remaining (T = 60 min): human liver microsomes; for Remaining (NCF = 60 min): no co-factor (no NADPH); for Remaining (T = 60 min): 60 min with NADPH
THP1 cells = assay: THP1-Dual cells, cell viability (CellTiter-Glo); assay type: cell-based
How it was run: (§1)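 Readouts after overnight incubation: Quantiluc luminescence for Ifnb, Quantiblue for nfkb (both in supernatant) and CellTiter-Glo for viability. Before the DNA stimulus (2 ug/ml, lipofectamine transfection), THP1-Dual cells received compound at several dilutions for 4 h.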

NFkB-SEAP = assay: THP1-Dual cells transfected with DNA, nfkb expression (Quantiblue); assay type: cell-based; conditions: Homo sapiens; for inhibition at 10 µM: THP-1, 10 μM; for inhibition at 30 µM: THP-1, 30 μM
How it was run: as §1

IFNB = assay: THP1-Dual cells transfected with DNA, Ifnb expression (Quantiluc); assay type: cell-based; conditions: Homo sapiens; for inhibition at 10 µM: THP-1, 10 μM; for inhibition at 30 µM: THP-1, 30 μM
How it was run: as §1

[2] = Metabolic stability in mouse liver microsomes; conditions: for Remaining (NCF = 60 min) / Remaining (T = 60 min): mouse liver microsomes; for Remaining (NCF = 60 min): no co-factor (no NADPH); for Remaining (T = 60 min): 60 min with NADPH

Chain of h-cGAS (Q8N884 whole entry): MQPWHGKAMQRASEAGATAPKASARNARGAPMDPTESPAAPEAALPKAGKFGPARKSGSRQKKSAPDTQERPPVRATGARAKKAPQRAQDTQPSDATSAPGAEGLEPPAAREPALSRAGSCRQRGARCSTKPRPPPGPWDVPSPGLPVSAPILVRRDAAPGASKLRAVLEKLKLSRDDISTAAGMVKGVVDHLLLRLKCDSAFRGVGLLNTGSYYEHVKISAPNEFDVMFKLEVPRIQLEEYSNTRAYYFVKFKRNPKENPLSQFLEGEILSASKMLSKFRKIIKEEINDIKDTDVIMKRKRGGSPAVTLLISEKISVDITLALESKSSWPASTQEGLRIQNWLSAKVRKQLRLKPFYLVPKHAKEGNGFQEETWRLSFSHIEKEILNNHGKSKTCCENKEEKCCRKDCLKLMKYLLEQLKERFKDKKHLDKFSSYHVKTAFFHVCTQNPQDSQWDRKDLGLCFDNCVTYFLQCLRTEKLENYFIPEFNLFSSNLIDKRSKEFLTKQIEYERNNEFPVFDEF
Chain of m-cGAS (Q8C6L5 whole entry): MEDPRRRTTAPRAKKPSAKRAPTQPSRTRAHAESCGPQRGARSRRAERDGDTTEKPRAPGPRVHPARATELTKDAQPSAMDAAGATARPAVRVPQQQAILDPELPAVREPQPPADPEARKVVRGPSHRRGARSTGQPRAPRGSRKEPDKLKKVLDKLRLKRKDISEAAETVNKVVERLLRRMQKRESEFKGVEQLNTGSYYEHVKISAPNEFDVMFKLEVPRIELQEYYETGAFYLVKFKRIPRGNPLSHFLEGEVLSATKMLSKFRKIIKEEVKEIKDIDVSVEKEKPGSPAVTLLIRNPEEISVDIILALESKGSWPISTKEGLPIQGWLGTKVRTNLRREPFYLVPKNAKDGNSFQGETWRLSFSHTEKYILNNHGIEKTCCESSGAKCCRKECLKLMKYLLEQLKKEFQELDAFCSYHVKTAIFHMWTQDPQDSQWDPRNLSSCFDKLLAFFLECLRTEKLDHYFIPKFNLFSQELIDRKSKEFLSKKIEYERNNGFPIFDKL

Compound | inhibition at 10 µM (m-cGAS) [%] | inhibition at 1 µM (h-cGAS) [%] | inhibition at 10 µM (h-cGAS) [%] | Cell viability 10 μM (THP1 cells) | Cell viability 30 μM (THP1 cells) | inhibition at 10 µM (NFkB-SEAP) [%] | inhibition at 30 µM (NFkB-SEAP) [%] | inhibition at 10 µM (IFNB) [%] | inhibition at 30 µM (IFNB) [%] | Remaining (NCF = 60 min) [2] [%] | Remaining (T = 60 min) [2] [%] | inhibition at 1 µM (m-cGAS) [%] | other results
Cn1cc(-c2cc(Cl)c(Cl)c3c2c2c(n3C)CCN(C(=O)CN)C2)cn1 [Compound 11] | 25 to 49 | 75 to 100 | 75 to 100 | ++ (+, ++, and +++ mean the compound respectively shows 25-49%; 50-74%; or 75-100% viability to cells) | − (Cell viability <24%, in THP1 cells is expressed as “−”) | < 24 | 50 to 74 | 50 to 74 | 75 to 100 | 97.7 | 80.1 | – | Remaining (NCF = 60 min) [1]: 116.1%; Remaining (T = 60 min) [1]: 88.2%; CLint scaled ([1]; human, liver microsomes): < 8.6 mL/min/kg; half-life ([1]; human, liver microsomes): > 145 min; microsomal CLint ([1]; human, liver microsomes): < 9.6 µL/min/mg; CLint scaled ([2]; mouse, liver microsomes): < 38 mL/min/kg; half-life ([2]; mouse, liver microsomes): > 145 min; microsomal CLint ([2]; mouse, liver microsomes): < 9.6 µL/min/mg
Cn1ccc(-c2cc(Cl)c(Cl)c3oc4c(c23)CN(C(=O)CO)CC4)n1 [Compound 24] | 50 to 74 | 50 to 74 | 75 to 100 | +++ (+, ++, and +++ mean the compound respectively shows 25-49%; 50-74%; or 75-100% viability to cells) | +++ (+, ++, and +++ mean the compound respectively shows 25-49%; 50-74%; or 75-100% viability to cells) | < 24 | – | 50 to 74 | 75 to 100 | 116.2 | 6.3 | 0 to 24 | CLint scaled ([2]; mouse, liver microsomes): < 23.1 mL/min/kg; half-life ([2]; mouse, liver microsomes): > 185 min; microsomal CLint ([2]; mouse, liver microsomes): < 7.5 µL/min/mg
NCC(=O)N1CCc2c(sc3c(Cl)c(Cl)cc(-c4ncccn4)c23)C1 [Compound 89] | 25 to 49 | 0 to 24 | 50 to 74 | +++ (+, ++, and +++ mean the compound respectively shows 25-49%; 50-74%; or 75-100% viability to cells) | ++ (+, ++, and +++ mean the compound respectively shows 25-49%; 50-74%; or 75-100% viability to cells) | < 24 | 50 to 74 | < 24 | 50 to 74 | – | – | 0 to 24 | –
NCC(=O)N1CCc2c(sc3c(Cl)c(Cl)cc(-c4cnccn4)c23)C1 [Compound 90] | 50 to 74 | 0 to 24 | 50 to 74 | +++ (+, ++, and +++ mean the compound respectively shows 25-49%; 50-74%; or 75-100% viability to cells) | − (Cell viability <24%, in THP1 cells is expressed as “−”) | 25 to 49 | 75 to 100 | 25 to 49 | 50 to 74 | – | – | 25 to 49 | –
Cc1csc(-c2cc(Cl)c(Cl)c3sc4c(c23)CCN(C(=O)CN)C4)n1 [Compound 91] | 50 to 74 | 25 to 49 | 50 to 74 | ++ (+, ++, and +++ mean the compound respectively shows 25-49%; 50-74%; or 75-100% viability to cells) | − (Cell viability <24%, in THP1 cells is expressed as “−”) | 25 to 49 | – | 50 to 74 | – | – | – | 0 to 24 | –
Cn1ncc(-c2cc(Cl)c(Cl)c3sc4c(c23)CCN(C(=O)CN)C4)n1 [Compound 92] | 75 to 100 | 25 to 49 | 50 to 74 | ++ (+, ++, and +++ mean the compound respectively shows 25-49%; 50-74%; or 75-100% viability to cells) | − (Cell viability <24%, in THP1 cells is expressed as “−”) | 75 to 100 | 75 to 100 | 75 to 100 | 75 to 100 | – | – | 25 to 49 | –
Cn1cnc(-c2cc(Cl)c(Cl)c3sc4c(c23)CCN(C(=O)CN)C4)c1 [Compound 93] | 50 to 74 | 0 to 24 | 50 to 74 | +++ (+, ++, and +++ mean the compound respectively shows 25-49%; 50-74%; or 75-100% viability to cells) | − (Cell viability <24%, in THP1 cells is expressed as “−”) | < 24 | 50 to 74 | < 24 | 75 to 100 | – | – | 0 to 24 | –
NCC(=O)N1CCc2c(sc3c(Cl)c(Cl)cc(-n4cccn4)c23)C1 [Compound 94] | 50 to 74 | 25 to 49 | 50 to 74 | +++ (+, ++, and +++ mean the compound respectively shows 25-49%; 50-74%; or 75-100% viability to cells) | – | < 24 | – | < 24 | – | – | – | 0 to 24 | –
CNc1cnn(-c2cc(Cl)c(Cl)c3sc4c(c23)CCN(C(=O)CN)C4)c1 [Compound 95] | 50 to 74 | – | 50 to 74 | +++ (+, ++, and +++ mean the compound respectively shows 25-49%; 50-74%; or 75-100% viability to cells) | +++ (+, ++, and +++ mean the compound respectively shows 25-49%; 50-74%; or 75-100% viability to cells) | 25 to 49 | 25 to 49 | < 24 | 25 to 49 | – | – | – | –
Cc1ccn(-c2cc(Cl)c(Cl)c3sc4c(c23)CCN(C(=O)CN)C4)n1 [Compound 96] | 25 to 49 | 0 to 24 | 25 to 49 | +++ (+, ++, and +++ mean the compound respectively shows 25-49%; 50-74%; or 75-100% viability to cells) | +++ (+, ++, and +++ mean the compound respectively shows 25-49%; 50-74%; or 75-100% viability to cells) | < 24 | < 24 | < 24 | < 24 | – | – | – | –
NCC(=O)N1CCc2c(sc3c(Cl)c(Cl)cc(-n4ccnc4)c23)C1 [Compound 97] | 50 to 74 | – | 25 to 49 | +++ (+, ++, and +++ mean the compound respectively shows 25-49%; 50-74%; or 75-100% viability to cells) | +++ (+, ++, and +++ mean the compound respectively shows 25-49%; 50-74%; or 75-100% viability to cells) | 25 to 49 | 75 to 100 | 50 to 74 | 75 to 100 | – | – | – | –
O=C(O)Cc1ccccc1Nc1c(Cl)cccc1Cl [Diclofenac, reference compound] | – | – | – | – | – | – | – | – | – | 100.4 | 33.1 | – | Remaining (NCF = 60 min) [1]: 114.8%; Remaining (T = 60 min) [1]: 0.0%; CLint(mic) ([1]; human, liver microsomes): 323.6 µL/min/mg; T½ ([1]; human, liver microsomes): 4.3 min; half-life ([2]; mouse, liver microsomes): 38 min; microsomal CLint ([2]; mouse, liver microsomes): 36.5 µL/min/mg
C[C@]12CC[C@H]3[C@@H](CCC4=CC(=O)CC[C@@]43C)[C@@H]1CC[C@@H]2O [Testosterone, reference compound] | – | – | – | – | – | – | – | – | – | 88.7 | 0.0 | – | Remaining (NCF = 60 min) [1]: 109.9%; Remaining (T = 60 min) [1]: 4.0%; CLint scaled ([1]; human, liver microsomes): 98.2 mL/min/kg; CLint scaled ([2]; mouse, liver microsomes): 1490 mL/min/kg; CLint(mic) ([2]; mouse, liver microsomes): 375.9 µL/min/mg; T½ ([2]; mouse, liver microsomes): 3.7 min
